We go through 26 compounds from patent US6506772B1, “Substituted [1,2,4]triazolo[1,5a]pyridine derivatives with activity as adenosine receptor ligands” (Hoffmann-La Roche Inc., priority 2000, dated 2003).

In general, Ki refers to the dissociation constant of the complex between target and ligand, obtained from inhibition or displacement.

In assay [1] the target is T1, human adenosine A2A receptor (Homo sapiens, UniProt P29274).
T1 construct: expressed in transfected cells; host or cells: CHO cells, Semliki Forest virus expression system; membrane preparation
T1 sequence (P29274 whole entry): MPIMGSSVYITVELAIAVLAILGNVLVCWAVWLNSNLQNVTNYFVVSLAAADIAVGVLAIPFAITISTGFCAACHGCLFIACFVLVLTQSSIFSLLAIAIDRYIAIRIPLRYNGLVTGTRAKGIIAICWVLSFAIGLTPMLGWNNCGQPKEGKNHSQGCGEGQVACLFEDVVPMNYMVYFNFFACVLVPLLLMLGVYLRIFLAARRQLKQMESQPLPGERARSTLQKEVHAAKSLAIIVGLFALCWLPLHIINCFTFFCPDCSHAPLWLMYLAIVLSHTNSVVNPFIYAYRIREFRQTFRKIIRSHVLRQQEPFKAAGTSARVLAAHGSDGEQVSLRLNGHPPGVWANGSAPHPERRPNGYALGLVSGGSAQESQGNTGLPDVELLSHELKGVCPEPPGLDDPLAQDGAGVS
The assay is described as follows: Human adenosine A2A receptor [3H]-SCH-58261 binding assay. The conditions noted are these: for Ki: affinity to human adenosine A2A receptor, read-out: Ki HA2A; for selectivity (A1/A2a): calculated ratio of the affinity to the HA1 receptor to the HA2a receptor.

The next assay deals with T2, HA1 adenosine receptor (Homo sapiens, UniProt P30542).
T2 sequence (P30542 1-326): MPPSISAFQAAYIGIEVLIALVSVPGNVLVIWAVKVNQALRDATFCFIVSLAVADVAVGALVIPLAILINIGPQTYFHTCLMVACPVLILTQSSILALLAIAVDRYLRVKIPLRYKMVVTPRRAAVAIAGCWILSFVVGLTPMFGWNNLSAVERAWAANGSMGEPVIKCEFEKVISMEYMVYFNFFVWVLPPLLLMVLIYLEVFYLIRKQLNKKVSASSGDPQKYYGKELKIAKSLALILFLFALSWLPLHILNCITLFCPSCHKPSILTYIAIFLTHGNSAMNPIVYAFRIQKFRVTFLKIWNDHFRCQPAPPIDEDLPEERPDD
The assay is described as follows: Human adenosine A1 receptor affinity (Ki hA1). In kind it is binding. The conditions noted are these: affinity to human adenosine A1 receptor.

Regarding `COc1ccccc1CNC(=O)c1cc(N)n2nc(-c3ccoc3)nc2c1` [Example 228, 5-Amino-2-furan-3-yl-[1,2,4]triazolo[1,5-a]pyridine-7-carboxylic acid 2-methoxy-benzylamide], the Ki in assay [1] was found to be 30.5 nM; at HA1 adenosine receptor, 164 nM. Besides, the “selectivity (A1/A2a)” value in assay [1] was 5.4.
For `CCN(CC)C(=O)c1cc(N)n2nc(-c3ccc(Cl)o3)nc2c1` [Example 233, 5-Amino-2-(5-chloro-furan-2-yl)-[1,2,4]triazolo[1,5-a]pyridine-7-carboxylic acid diethylamide] the same measures were 7.2 nM, 280 nM and 38.7.
For `Nc1cc(C(=O)NC2CCCCC2)cc2nc(-c3ccc(Cl)o3)nn12` [Example 234, 5-Amino-2-(5-chloro-furan-2-yl)-[1,2,4]triazolo[1,5-a]pyridine-7-carboxylic acid cyclohexylamide] the same measures were 69.5 nM, 455 nM and 6.6.
In the same order, the values of `Nc1cc(C(=O)N2CCCC2)cc2nc(-c3ccc(Cl)o3)nn12` [Example 235, [5-Amino-2-(5-chloro-furan-2-yl)-[1,2,4]triazolo[1,5-a]pyridin-7-yl]-pyrrolidin-1-yl-methanone] are 18.1 nM, 770 nM and 42.5.
Take `Nc1cc(C(=O)N2CCCCC2)cc2nc(-c3ccc(Cl)o3)nn12` [Example 236, [5-Amino-2-(5-chloro-furan-2-yl)-[1,2,4]triazolo[1,5-a]pyridin-7-yl]-piperidin-1-yl-methanone]: in assay [1], the Ki is 9.2 nM and the “selectivity (A1/A2a)” value is given as 35.2. The affinity at HA1 adenosine receptor corresponds to a Ki of 325 nM.
In the case of `Nc1cc(C(=O)N2CCOCC2)cc2nc(-c3ccc(Cl)o3)nn12` [Example 237, [5-Amino-2-(5-chloro-furan-2-yl)-[1,2,4]triazolo[1,5-a]pyridin-7-yl]-morpholin-4-yl-methanone], in assay [1], the Ki came to 52.3 nM and the “selectivity (A1/A2a)” value is 13.5. Further, the Ki on HA1 adenosine receptor worked out at 708 nM.
In the same order, the values of `Nc1cc(C(=O)NCc2ccccc2)cc2nc(-c3ccc(Cl)o3)nn12` [Example 238, 5-Amino-2-(5-chloro-furan-2-yl)-[1,2,4]triazolo[1,5-a]pyridine-7-carboxylic acid benzylamide] are 40.4 nM, 2.3 and 94.3 nM.
As for `CC(C)N(Cc1ccccc1)C(=O)c1cc(N)n2nc(-c3ccc(Cl)o3)nc2c1` [Example 239, 5-Amino-2-(5-chloro-furan-2-yl)-[1,2,4]triazolo[1,5-a]pyridine-7-carboxylic acid benzyl-isopropyl-amide], the inhibition constant (Ki) in assay [1] amounted to 1.7 nM; at HA1 adenosine receptor, 25.1 nM. Also, in assay [1], the “selectivity (A1/A2a)” value is given as 14.6.
Regarding `CN(C(=O)c1cc(N)n2nc(-c3ccc(Cl)o3)nc2c1)C1CCCCC1` [Example 242, 5-Amino-2-(5-chloro-furan-2-yl)-[1,2,4]triazolo[1,5-a]pyridine-7-carboxylic acid cyclohexyl-methyl-amide], the values for the Ki (in assay [1]; on HA1 adenosine receptor) were 6.5 nM and 124 nM, respectively. Besides, the “selectivity (A1/A2a)” value in assay [1] is 19.0.
In the same order, the values of `CCN(C(=O)c1cc(N)n2nc(-c3ccc(Cl)o3)nc2c1)C1CCCCC1` [Example 243, 5-Amino-2-(5-chloro-furan-2-yl)-[1,2,4]triazolo[1,5-a]pyridine-7-carboxylic acid cyclohexyl-ethyl-amide] are 3.3 nM, 95.6 nM and 28.6.
For `Nc1cc(C(=O)NCc2ccc(Cl)cc2)cc2nc(-c3ccc(Cl)o3)nn12` [Example 244, 5-Amino-2-(5-chloro-furan-2-yl)-[1,2,4]triazolo[1,5-a]pyridine-7-carboxylic acid 4-chloro-benzylamide] the same measures were 218 nM, 190 nM and 0.9.
In the case of `Nc1cc(C(=O)NCc2ccc(F)cc2)cc2nc(-c3ccc(Cl)o3)nn12` [Example 245, 5-Amino-2-(5-chloro-furan-2-yl)-[1,2,4]triazolo[1,5-a]pyridine-7-carboxylic acid 4-fluoro-benzylamide], the Ki in assay [1] worked out at 155 nM; at HA1 adenosine receptor it was 289 nM. Also, in assay [1], the “selectivity (A1/A2a)” value is 1.9.
`COc1ccccc1CNC(=O)c1cc(N)n2nc(-c3ccc(Cl)o3)nc2c1` [Example 246, 5-Amino-2-(5-chloro-furan-2-yl)-[1,2,4]triazolo[1,5-a]pyridine-7-carboxylic acid 2-methoxy-benzylamide]: in assay [1], the Ki was found to be 24 nM and the “selectivity (A1/A2a)” value was 3.0. For the same compound, the Ki at HA1 adenosine receptor is 71.7 nM.
For `CN(CC1CC1)C(=O)c1cc(N)n2nc(-c3ccc(Cl)o3)nc2c1` [Example 247, 5-Amino-2-(5-chloro-furan-2-yl)-[1,2,4]triazolo[1,5-a]pyridine-7-carboxylic acid cyclopropylmethyl-methyl-amide] the same measures were 9.2 nM, 17.6 and 161 nM.
In the same order, the values of `CN(C)C(=O)c1cc(N)n2nc(-c3ccc(Cl)o3)nc2c1` [Example 248, 5-Amino-2-(5-chloro-furan-2-yl)-[1,2,4]triazolo[1,5-a]pyridine-7-carboxylic acid dimethylamide] are 44.3 nM, 13.6 and 601 nM.
Regarding `Nc1cc(C(=O)N2CCC2)cc2nc(-c3ccc(Cl)o3)nn12` [Example 249, [5-Amino-2-(5-chloro-furan-2-yl)-[1,2,4]triazolo[1,5-a]pyridin-7-yl]-azetidin-1-yl-methanone], in assay [1], the Ki was 2090 nM and the “selectivity (A1/A2a)” value is 3.0. Moreover, at HA1 adenosine receptor, the affinity corresponds to a Ki of 6210 nM.
In the same order, the values of `CCN(C)C(=O)c1cc(N)n2nc(-c3ccc(Cl)o3)nc2c1` [Example 250, 5-Amino-2-(5-chloro-furan-2-yl)-[1,2,4]triazolo[1,5-a]pyridine-7-carboxylic acid ethyl-methyl-amide] are 19.1 nM, 24.0 and 459 nM.
In the same order, the values of `C=CCN(C)C(=O)c1cc(N)n2nc(-c3ccc(Cl)o3)nc2c1` [Example 251, 5-Amino-2-(5-chloro-furan-2-yl)-[1,2,4]triazolo[1,5-a]pyridine-7-carboxylic acid allyl-methyl-amide] are 14.7 nM, 24.5 and 360 nM.
For `CCCN(C)C(=O)c1cc(N)n2nc(-c3ccc(Cl)o3)nc2c1` [Example 252, 5-Amino-2-(5-chloro-furan-2-yl)-[1,2,4]triazolo[1,5-a]pyridine-7-carboxylic acid methyl-propyl-amide] the same measures were 15.5 nM, 28.3 and 438 nM.
With `Nc1cc(C(=O)N2CC=CCC2)cc2nc(-c3ccc(Cl)o3)nn12` [Example 253], in assay [1], the Ki amounted to 9.5 nM and the “selectivity (A1/A2a)” value is listed as 28.9. For the same compound, the affinity on HA1 adenosine receptor, expressed as Ki, was 276 nM.
For `CC1CCCN1C(=O)c1cc(N)n2nc(-c3ccc(Cl)o3)nc2c1` (stereo not drawn) [Example 254, [5-Amino-2-(5-chloro-furan-2-yl)-[1,2,4]triazolo[1,5-a]pyridin-7-yl]-(2-methyl-pyrrolidin-1-yl)-methanone] the same measures were 11.2 nM, 44.8 and 503 nM.
With `CCN(C(=O)c1cc(N)n2nc(-c3ccc(Cl)o3)nc2c1)C(C)C` [Example 255, 5-Amino-2-(5-chloro-furan-2-yl)-[1,2,4]triazolo[1,5-a]pyridine-7-carboxylic acid ethyl-isopropyl-amide], in assay [1], the Ki was 3.2 nM and the “selectivity (A1/A2a)” value is listed as 28.9. On HA1 adenosine receptor, this compound displayed a Ki of 92.5 nM.
With `Nc1cc(C(=O)N2CCSCC2)cc2nc(-c3ccc(Cl)o3)nn12` [Example 256, [5-Amino-2-(5-chloro-furan-2-yl)-[1,2,4]triazolo[1,5-a]pyridin-7-yl]-thiomorpholin-4-yl-methanone], the Ki in assay [1] came out at 24.4 nM; at HA1 adenosine receptor, 430 nM. Moreover, the “selectivity (A1/A2a)” value in assay [1] is 17.7.
For `CC1CN(C(=O)c2cc(N)n3nc(-c4ccc(Cl)o4)nc3c2)CC(C)O1` (stereo not drawn) [Example 257, [5-Amino-2-(5-chloro-furan-2-yl)-[1,2,4]triazolo[1,5-a]pyridin-7-yl]-(2,6-dimethyl-morpholin-4-yl)-methanone] the same measures were 28.9 nM, 819 nM and 28.3.
For `CC1CCC(C)N1C(=O)c1cc(N)n2nc(-c3ccc(Cl)o3)nc2c1` (stereo not drawn) [Example 258, [5-Amino-2-(5-chloro-furan-2-yl)-[1,2,4]triazolo[1,5-a]pyridin-7-yl]-(2,5-dimethyl-pyrrolidin-1-yl)-methanone] the same measures were 7.2 nM, 221 nM and 30.6.
For `NC(=O)C1CCN(C(=O)c2cc(N)n3nc(-c4ccc(Cl)o4)nc3c2)CC1` [Example 259, 1-[5-Amino-2-(5-chloro-furan-2-yl)-[1,2,4]triazolo[1,5-a]pyridine-7-carbonyl]-piperidine-4-carboxylic acid amide] the same measures were 119 nM, 540 nM and 4.5.
